Assay results as given in ChEMBL document CHEMBL1201862, “PubChem BioAssay data set” (2004).
Active and inactive are the calls of the source.

Legend:
[1] = molecular target: T1, Histone-lysine N-methyltransferase NSD2 (Homo sapiens, UniProt O96028); assay type: biochemical
T1 sequence (O96028 whole entry): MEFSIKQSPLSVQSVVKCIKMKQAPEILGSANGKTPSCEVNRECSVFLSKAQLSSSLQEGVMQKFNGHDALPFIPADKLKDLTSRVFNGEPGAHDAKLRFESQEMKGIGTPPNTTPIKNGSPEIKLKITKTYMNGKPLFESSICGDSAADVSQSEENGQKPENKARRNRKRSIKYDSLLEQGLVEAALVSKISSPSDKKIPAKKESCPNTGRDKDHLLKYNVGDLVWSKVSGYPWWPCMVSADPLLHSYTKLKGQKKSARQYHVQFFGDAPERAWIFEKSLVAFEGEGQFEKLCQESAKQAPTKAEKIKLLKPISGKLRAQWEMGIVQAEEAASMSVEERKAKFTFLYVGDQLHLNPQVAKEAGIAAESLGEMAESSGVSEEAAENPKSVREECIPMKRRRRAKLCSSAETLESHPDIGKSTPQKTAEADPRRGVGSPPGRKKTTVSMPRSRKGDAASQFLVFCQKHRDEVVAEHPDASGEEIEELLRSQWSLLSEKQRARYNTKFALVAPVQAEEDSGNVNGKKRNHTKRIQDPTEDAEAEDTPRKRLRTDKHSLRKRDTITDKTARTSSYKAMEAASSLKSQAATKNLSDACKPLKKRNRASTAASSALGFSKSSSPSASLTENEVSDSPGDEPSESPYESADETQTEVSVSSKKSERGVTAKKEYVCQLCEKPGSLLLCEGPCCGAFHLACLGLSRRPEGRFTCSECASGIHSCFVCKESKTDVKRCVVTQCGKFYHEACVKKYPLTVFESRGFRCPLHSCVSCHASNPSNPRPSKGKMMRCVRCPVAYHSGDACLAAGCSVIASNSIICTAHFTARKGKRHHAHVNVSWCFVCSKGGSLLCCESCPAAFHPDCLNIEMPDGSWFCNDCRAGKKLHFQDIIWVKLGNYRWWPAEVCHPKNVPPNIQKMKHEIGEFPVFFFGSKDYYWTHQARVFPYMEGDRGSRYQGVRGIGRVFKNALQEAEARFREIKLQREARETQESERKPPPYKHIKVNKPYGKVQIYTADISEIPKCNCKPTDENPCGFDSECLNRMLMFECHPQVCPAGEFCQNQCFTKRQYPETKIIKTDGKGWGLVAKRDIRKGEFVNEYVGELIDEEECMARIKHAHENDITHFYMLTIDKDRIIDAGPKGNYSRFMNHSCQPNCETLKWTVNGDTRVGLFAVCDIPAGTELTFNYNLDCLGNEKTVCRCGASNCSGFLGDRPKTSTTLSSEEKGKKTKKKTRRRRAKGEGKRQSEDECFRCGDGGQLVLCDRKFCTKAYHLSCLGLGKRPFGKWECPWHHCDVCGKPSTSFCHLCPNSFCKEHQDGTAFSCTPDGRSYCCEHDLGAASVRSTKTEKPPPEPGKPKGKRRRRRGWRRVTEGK

[2] = molecular target: T2, Ubiquitin-conjugating enzyme E2 N (Homo sapiens, UniProt P61088); assay type: functional;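 also: Dose-response confirmation in a TR-FRET assay detecting UBC13-driven polyubiquitin chain formation, inhibition measured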
T2 sequence (P61088 whole entry): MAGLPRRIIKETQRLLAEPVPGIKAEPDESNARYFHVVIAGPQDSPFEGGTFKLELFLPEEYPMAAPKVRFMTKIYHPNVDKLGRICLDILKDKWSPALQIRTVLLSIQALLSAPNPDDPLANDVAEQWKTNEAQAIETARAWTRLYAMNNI

[3] = molecular target: T3, DNA repair protein RAD52 homolog (Homo sapiens, UniProt P43351); assay type: functional, biochemical
T3 sequence (P43351 whole entry): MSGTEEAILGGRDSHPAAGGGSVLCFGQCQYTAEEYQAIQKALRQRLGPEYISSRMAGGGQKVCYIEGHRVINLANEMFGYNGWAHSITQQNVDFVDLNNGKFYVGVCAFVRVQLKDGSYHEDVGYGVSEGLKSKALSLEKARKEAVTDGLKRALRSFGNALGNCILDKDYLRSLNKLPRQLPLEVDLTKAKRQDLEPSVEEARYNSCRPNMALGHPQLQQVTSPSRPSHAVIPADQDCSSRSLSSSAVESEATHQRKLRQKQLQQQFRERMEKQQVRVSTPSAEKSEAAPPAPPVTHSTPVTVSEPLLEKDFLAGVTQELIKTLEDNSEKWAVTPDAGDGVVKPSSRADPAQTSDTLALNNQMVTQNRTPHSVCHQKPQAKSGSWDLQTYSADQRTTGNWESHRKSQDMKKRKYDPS

[4] = Dd2 malaria parasite growth inhibition potency – SYBR Green, dry powder samples, dose response (AID 1159566); assay type: functional, cell-based;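 also: potency for growth inhibition with lower SYBR green DNA signal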
[5] = growth inhibition of PfATP4-mutant resistant parasites – NITD609-resistant line, SYBR Green, dry powder, dose response (AID 1159571); assay type: functional, cell-based;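 also: parasites synchronized at ring stage by sorbitol before testing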
[6] = growth inhibition of yeast DHODH-expressing 3D7 parasites – SYBR Green, dry powder samples, dose response (AID 1159570); assay type: functional, cell-based;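 also: parasite growth measured after 72 hours of compound exposure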
[7] = P. falciparum Dd2 growth inhibitors, dose response, SYBR Green, cherry-picked samples (AID 1159567); assay type: functional, cell-based
Leucine aminopeptidase = molecular target: T4, Leucine aminopeptidase (Plasmodium falciparum 3D7, UniProt Q8IL11); experiment: P. falciparum M17LAP inhibitors, primary screen, biochemical, fluorogenic H-Leu-NHMec substrate, 1536-well (AID 1619); assay type: functional
T4 sequence (Q8IL11 whole entry): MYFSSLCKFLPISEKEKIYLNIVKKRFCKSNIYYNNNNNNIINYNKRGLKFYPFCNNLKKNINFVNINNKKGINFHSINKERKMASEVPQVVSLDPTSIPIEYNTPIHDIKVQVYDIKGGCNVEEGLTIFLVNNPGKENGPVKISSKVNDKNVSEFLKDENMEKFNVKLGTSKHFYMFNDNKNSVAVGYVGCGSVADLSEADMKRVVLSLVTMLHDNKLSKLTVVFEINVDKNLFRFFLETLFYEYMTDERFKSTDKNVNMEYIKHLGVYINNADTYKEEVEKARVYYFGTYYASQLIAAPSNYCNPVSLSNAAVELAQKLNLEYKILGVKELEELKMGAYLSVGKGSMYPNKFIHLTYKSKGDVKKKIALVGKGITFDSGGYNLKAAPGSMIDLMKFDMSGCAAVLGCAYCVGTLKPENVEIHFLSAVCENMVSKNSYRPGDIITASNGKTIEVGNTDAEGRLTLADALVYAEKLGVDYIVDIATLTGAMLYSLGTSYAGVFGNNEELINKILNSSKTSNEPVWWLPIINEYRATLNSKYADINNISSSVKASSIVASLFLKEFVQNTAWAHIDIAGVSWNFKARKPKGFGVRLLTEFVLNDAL

Aminopeptidase N = molecular target: T5, Aminopeptidase N (Plasmodium falciparum FcB1/Columbia, UniProt O96935); experiment: malaria alanyl aminopeptidase activity blockers – biochemical, fluorogenic H-Leu-NHMec substrate, 1536-well (AID 1445); design: species or system Plasmodium falciparum 3D7, 3D7
T5 sequence (O96935 whole entry): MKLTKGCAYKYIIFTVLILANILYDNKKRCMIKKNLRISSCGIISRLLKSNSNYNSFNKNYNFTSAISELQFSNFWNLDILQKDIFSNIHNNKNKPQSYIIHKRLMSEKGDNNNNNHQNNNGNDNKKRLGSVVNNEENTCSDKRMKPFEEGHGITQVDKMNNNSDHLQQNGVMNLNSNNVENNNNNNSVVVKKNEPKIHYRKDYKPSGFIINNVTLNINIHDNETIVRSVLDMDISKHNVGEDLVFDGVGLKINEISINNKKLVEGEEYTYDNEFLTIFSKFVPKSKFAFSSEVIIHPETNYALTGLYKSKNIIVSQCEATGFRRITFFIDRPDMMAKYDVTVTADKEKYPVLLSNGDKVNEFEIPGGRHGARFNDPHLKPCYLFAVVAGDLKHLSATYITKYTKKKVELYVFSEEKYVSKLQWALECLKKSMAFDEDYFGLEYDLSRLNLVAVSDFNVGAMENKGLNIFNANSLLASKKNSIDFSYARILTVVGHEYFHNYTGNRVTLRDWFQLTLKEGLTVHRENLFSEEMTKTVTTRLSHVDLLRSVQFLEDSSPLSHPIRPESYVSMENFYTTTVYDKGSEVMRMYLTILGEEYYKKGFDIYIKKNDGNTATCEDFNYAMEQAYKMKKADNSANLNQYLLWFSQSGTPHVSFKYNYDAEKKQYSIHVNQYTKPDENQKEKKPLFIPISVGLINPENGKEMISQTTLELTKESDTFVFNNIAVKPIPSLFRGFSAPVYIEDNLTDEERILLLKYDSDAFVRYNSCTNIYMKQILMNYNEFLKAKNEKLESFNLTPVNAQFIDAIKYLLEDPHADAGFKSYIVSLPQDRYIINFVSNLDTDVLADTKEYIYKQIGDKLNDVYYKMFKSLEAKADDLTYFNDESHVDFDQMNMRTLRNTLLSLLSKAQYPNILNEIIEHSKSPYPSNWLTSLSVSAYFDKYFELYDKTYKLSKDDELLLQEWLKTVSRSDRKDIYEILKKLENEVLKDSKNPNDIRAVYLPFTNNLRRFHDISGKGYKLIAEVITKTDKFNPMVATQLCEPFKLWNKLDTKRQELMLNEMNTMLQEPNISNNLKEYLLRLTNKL

Paired box protein Pax-8 = Paired box protein Pax-8 (Homo sapiens, UniProt Q06710); experiment: PAX8 transcriptional activity inhibition in RMG-I – RMG-I cells, luciferase, cherry-pick, dose response (AID 687027); assay type: functional, cell-based;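 also: luciferase reporter driven by Pax8 target thyroperoxidase promoter measured by SteadyGlo luminescence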
[8] = OVCAR8 cell viability loss – plate reader, dry powder samples, PAX8 project, dose response (AID 743197); assay type: functional, cell-based; details: OVCAR-8
[9] = OVCAR-3 cell viability loss – plate reader, dry powder samples, PAX8 inhibitor project, dose response (AID 743044); assay type: functional, cell-based
[10] = molecular target: T6, Tyrosine-protein phosphatase non-receptor type 11 (Homo sapiens, UniProt Q06124); experiment: PTPN11 enzyme inhibitors – biochemical, selectivity assay for STEP inhibitor project, dose response (AID 602367); assay type: functional; details: read-out: IC50_Mean
T6 sequence (Q06124 whole entry): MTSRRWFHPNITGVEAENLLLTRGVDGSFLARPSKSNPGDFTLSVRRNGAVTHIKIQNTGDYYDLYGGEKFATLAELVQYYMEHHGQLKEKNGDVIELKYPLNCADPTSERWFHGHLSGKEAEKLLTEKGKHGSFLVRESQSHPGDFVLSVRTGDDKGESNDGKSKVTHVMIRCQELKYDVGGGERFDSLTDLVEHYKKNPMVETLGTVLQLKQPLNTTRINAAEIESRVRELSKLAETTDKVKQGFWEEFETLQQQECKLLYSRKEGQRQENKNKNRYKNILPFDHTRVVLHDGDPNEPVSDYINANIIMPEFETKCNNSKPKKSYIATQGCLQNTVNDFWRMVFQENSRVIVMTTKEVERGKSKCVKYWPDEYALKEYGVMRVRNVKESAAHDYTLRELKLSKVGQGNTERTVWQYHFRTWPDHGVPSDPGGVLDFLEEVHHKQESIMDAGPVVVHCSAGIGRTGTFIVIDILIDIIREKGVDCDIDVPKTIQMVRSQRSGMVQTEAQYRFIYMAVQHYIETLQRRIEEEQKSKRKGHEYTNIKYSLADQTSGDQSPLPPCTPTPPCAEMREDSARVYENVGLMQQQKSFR

[11] = molecular target: T7, Tyrosine-protein phosphatase non-receptor type 5 (Homo sapiens, UniProt P54829); experiment: PTPN5 enzyme inhibition – biochemical, fluorescence intensity, uHTS hits, confirmation (AID 602372); assay type: functional; details: read-out: IC50_Mean
T7 sequence (P54829 whole entry): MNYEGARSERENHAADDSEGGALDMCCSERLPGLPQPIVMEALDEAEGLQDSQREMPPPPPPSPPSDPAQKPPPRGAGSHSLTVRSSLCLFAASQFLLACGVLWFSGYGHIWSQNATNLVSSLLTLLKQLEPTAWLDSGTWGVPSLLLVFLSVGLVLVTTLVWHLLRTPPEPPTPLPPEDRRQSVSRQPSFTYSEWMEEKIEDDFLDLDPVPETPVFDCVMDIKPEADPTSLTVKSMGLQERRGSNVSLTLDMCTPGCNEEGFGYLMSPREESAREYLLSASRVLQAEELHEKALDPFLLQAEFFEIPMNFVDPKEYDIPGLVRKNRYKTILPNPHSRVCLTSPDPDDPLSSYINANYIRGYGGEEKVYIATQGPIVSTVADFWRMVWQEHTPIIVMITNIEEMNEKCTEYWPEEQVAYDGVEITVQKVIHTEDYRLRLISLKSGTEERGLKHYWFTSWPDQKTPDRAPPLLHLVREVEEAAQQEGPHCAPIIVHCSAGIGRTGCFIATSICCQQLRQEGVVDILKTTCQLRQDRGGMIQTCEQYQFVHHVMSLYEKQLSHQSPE

[12] = molecular target: Dual specificity protein phosphatase 3 (Homo sapiens, UniProt P51452); experiment: VHR phosphatase inhibition, dose response, selectivity assay for STEP inhibitor project, biochemical (AID 602374); assay type: functional; details: read-out: IC50_Mean
Sequence of Dual specificity protein phosphatase 3 (P51452 whole entry): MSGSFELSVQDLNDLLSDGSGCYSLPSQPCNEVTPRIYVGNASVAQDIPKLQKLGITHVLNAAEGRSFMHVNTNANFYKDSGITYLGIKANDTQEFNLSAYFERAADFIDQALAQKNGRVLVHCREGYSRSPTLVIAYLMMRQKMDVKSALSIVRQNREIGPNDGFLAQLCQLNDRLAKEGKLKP

Sequence of Paired box protein Pax-8 (Q06710 whole entry): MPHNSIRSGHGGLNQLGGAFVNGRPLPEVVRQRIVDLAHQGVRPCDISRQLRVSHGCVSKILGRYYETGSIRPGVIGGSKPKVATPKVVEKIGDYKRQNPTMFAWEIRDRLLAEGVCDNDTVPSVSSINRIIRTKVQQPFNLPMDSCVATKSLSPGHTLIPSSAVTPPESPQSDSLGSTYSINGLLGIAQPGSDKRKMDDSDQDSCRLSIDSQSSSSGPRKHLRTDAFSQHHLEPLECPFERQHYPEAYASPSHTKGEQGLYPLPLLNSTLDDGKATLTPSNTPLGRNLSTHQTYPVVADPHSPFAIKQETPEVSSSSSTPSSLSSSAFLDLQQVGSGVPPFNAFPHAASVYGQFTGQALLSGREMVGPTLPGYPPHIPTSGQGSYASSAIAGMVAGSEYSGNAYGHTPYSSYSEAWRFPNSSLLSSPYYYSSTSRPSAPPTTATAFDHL

CCN(CC)CCCNc1ncnc2scc(-c3ccc(F)cc3)c12
AC50 [1]: > 20 µM (inactive)

CN(C)CCOC(=O)c1ccc2[nH]c3c(c2c1)CSCC3
IC50 [2]: > 20 µM (inactive) | AC50 [3]: 0.792 µM (active)

C=CCNCCCCOc1ccccc1
AC50 [1]: > 20 µM (inactive)

COc1ccc(NC(=O)N2CCCCN3[C@@H](CO)[C@H](c4ccc(C#Cc5ccccn5)cc4)[C@@H]3C2)cc1
AC50 [4]: 0.155 µM (active) | AC50 [5]: 0.132 µM (active) | AC50 [6]: 0.116 µM (active) | AC50 [7]: < 0.3 µM (active)

Cc1ccc(C)c(N2C(=N)S/C(=C\c3ccc(-c4ccccc4C(=O)O)o3)C2=O)c1
IC50 (Leucine aminopeptidase): 32.6 µM (active) | AC50 [1]: 10.4 µM (active) | IC50 (Aminopeptidase N): 10.4 µM (active)

Cc1ccc(S(=O)(=O)N(C)C[C@H]2Oc3cc(C#Cc4ccncc4)ccc3S(=O)(=O)N([C@@H](C)CO)C[C@@H]2C)cc1
AC50 [4]: 1.41 µM (active) | AC50 (Paired box protein Pax-8): 2.52 µM (active) | AC50 [8]: > 70 µM (inactive) | AC50 [5]: 1.64 µM (active) | AC50 [9]: 49.1 µM (active) | AC50 [6]: 1.37 µM (active) | AC50 [7]: 1.68 µM (active)

NS(=O)(=O)c1ccc(NC(=S)N2CCC(Cc3ccccc3)CC2)cc1
IC50 [10]: 3.13 µM (active) | IC50 [11]: 38.8 µM (inactive) | IC50 [12]: 1.03 µM (active)

Cc1noc(C)c1S(=O)(=O)Nc1ccc2c(c1)C(=O)N([C@@H](C)CO)C[C@H](C)[C@@H](CN(C)C(=O)Nc1ccc(C(F)(F)F)cc1)OCCCC[C@H](C)O2
AC50 (Paired box protein Pax-8): 4.92 µM (active) | AC50 [8]: > 70 µM (inactive) | AC50 [9]: 30.9 µM (active)

O=C1NN(c2cccc(Br)c2)C(=O)/C1=C\c1ccc(N2CCOCC2)cc1
IC50 [10]: 4.48 µM (active) | IC50 [11]: 21.3 µM (inactive) | IC50 [12]: 2.55 µM (active)
